According to US20210386756A1, “IMPROVEMENTS FOR PERFORMING AND FACILITATING THE RECOVERY AFTER HEMATOPOIETIC STEM CELL TRANSPLANTATION” (Centro de Investigaciones Energéticas, Medioambientales y …, priority 2018, published 2021):

What was measured:
[1] = tested on: hCD34+ hematopoietic progenitors; test: In vitro toxicity of natural estrogens for hematopoietic progenitors (hCD34+ culture, FACS subsets); format: cell-based, human; conditions: for toxicity for hematopoietic progenitor subpopulations: 10 nM to 500 μM, in vitro; for % CD34+/CD38− / % HSC / % MLP / % MPP: four days culture
Method: FIG. 9 relates the effect of different concentration of E1, E2, E3 and E4 in human hematopoietic progenitors. Human hematopoietic progenitors were culture in phenol red free media supplemented with 100 ng/mL SCF, 100 ng/ml FLT3L and 100 ng/ml TPO and different concentration of E1, E2, E3 and E4 (from 10 nM to 500 μM). FIG. 9A represents the fold increase of the number of hematopoietic cells after four days in culture. FIG. 9B indicates the total number of primitive hematopoietic progenitors (CD34^+/CD38^−) present in the culture, extrapolated from number of cells and the frequency of this population analyzed by FACS. […] Grey dashed lines point the value of control group, and red dashed lines indicate the initial values at day 0. (Kruskal-Wallis test; P<0.05, data from four independent experiments).
To assess the toxicity of the natural estrogens (E1, E2, E3 and E4) for hematopoietic progenitors, in vitro studies were performed. 5×10^4 hCD34^+ were cultured in a phenol red-free media, X-Vivo 20 (Lonza), in presence of 100 ng/ml SCF, 100 ng/ml FLT3L, 100 ng/ml TPO, 0.5% PS, 1% Glutamax (Thermofisher) and different concentrations of E1, E2, E3 or E4 (from 10 nM to 500 μM). Cell proliferation and immunophenotype of different hematopoietic subsets (CD34^+/CD38^−, HSC [CD34^+/CD38^−/CD45RA^−/CD90^+], Multipotent Progenitors [MPP, CD34^+/CD38^−/CD45RA^−/CD90^−], Multipotent Lymphoid Progenitors [MLP, CD34^+/CD38^−/CD45RA^+] were evaluated at day 0 and four days after culture.

[2] = tested on: human cord-blood CD34+ cells; test: Human hematopoietic engraftment in male NSG mice transplanted with 5×10^4 human cord-blood CD34+ cells; format: in vivo, mouse; conditions: male NSG, 5×10^4 CD34+, 2 μg daily for four days, mean +/− SEM
Method: Three-four months later, the animals were sacrificed and the human hematopoietic engraftment was analyzed by FACS. Human hematopoietic population was identified as the cells positive for hCD45-APC-Cy7 (Biolegend) and negative for mouse CD45.1-PE (Biolegend). In order to further examine the effect of the estrogen in HSCT, hematopoietic progenitors (hCD34+) and hematopoietic stem cells (hCD34+/hCD38−) were analyzed by FACS inside of the human population in the treated NSG described in Example 1.

[3] = tested on: human hematopoietic progenitors (CB-CD34+); test: LTC-IC human bone marrow-like co-culture (hMSC + hCD34+) and CFU assay; format: cell-based
Method: LTC-IC was established through the co-culture of human bone marrow Mesenchymal Stromal Cells (BM-MSC) and human progenitors (CB-CD34+) to research the positive effects of the estrogens in a human context, such as an in vitro human bone marrow model. LTC-ICs were treated with vehicle or 100 µM of E2 or E4 for a week. […] Cells were plated in methycellulose media with specific hematopoietic cytokines to evaluate the hematopoietic progenitor content. After 14 days, colony forming units (CFU) were counted. Data were normalized to control groups. […] 1×10^5 human mesenchymal stromal cells (hMSC) were seeded in a p6 well and irradiated with 30 Gy next day. The following day, 5×10^4 hCD34^+ were added to the hMSC in LTC-IC media: 75% α-MEM without Phenol Red (Life Technologies), 12.5% Hyclone FBS (GE Healthcare), HS (Life Technologies), β-mercaptoethanol (Life Technologies), 0.5% PS and 1×10^−6 M Hydrocortisone (Sigma-Aldrich). 100 μM of estrogens, dissolved in ethanol, was added to the co-culture for a week, and then the cells were collected and the amount of human hematopoietic progenitors were evaluated in semisolid media supplement with specific hematopoietic cytokines (H4535, StemCell Technologies) plus 8 U/ml hEPO. After fourteen days, colony-forming units (CFU) were evaluated and normalized to the control: […]

human cord blood CD34+ [4] = test: Human engraftment in female NSG mice transplanted with a limited CD34+ cell dose (5×10^3); format: in vivo, mouse; conditions: low dose 5×10^3 hCD34+, mean +/− SEM
Excerpt: FIG. 7A indicates human hematopoietic reconstitution after four months. […] However, in spite of this presence of endogenous estrogens, the human engraftment in female recipients was increased after E2 and more importantly after E4 treatment. FIG. 7B relates the presence of primitive hematopoietic progenitors was higher in the female mice treated with estrogens, which indicated the quality of the reconstitution. (Kruskal-Wallis test; P<0.05, 4 mice per group). […] Three-four months later, the animals were sacrificed and the human hematopoietic engraftment was analyzed by FACS. Human hematopoietic population was identified as the cells positive for hCD45-APC-Cy7 (Biolegend) and negative for mouse CD45.1-PE (Biolegend). To assess whether estrogen can improve hematopoietic reconstitution in female recipients, female NSG were irradiated and transplanted by a low doses of human cord blood CD34^+ (5×10^3 hCD34^+). The human engraftment was analyzed as described in Example 1. […] However, in spite of this presence of endogenous estrogens, the human engraftment in female recipients was increased after E2 and more importantly after E4 treatment.

human cord blood CD34+ [5] = test: Human engraftment in male NSG mice transplanted with a limited CD34+ cell dose (5×10^3); format: in vivo, mouse
Method: FIG. 6A indicates the level of human engraftment, which was raised by E4 administration. […] (Kruskal-Wallis test; P=0.1150, 7-10 mice per group). […] Three-four months later, the animals were sacrificed and the human hematopoietic engraftment was analyzed by FACS. Human hematopoietic population was identified as the cells positive for hCD45-APC-Cy7 (Biolegend) and negative for mouse CD45.1-PE (Biolegend). To determine whether estrogen can improve hematopoietic reconstitution of low number of hematopoietic progenitors, male NSG were irradiated and transplanted with low doses of human cord blood CD34+ (5×103 hCD34+). The human engraftment was analyzed as described in Example 1.

[6] = 100 μM for a week, versus vehicle

Row | Structure (SMILES) | toxicity for hematopoietic progenitor subpopulations [1] | % CD34+/CD38− ([1]; 10 nM) | % HSC ([1]; 10 nM) | % MLP ([1]; 10 nM) | % MPP ([1]; 10 nM) | % CD34+/CD38− ([1]; 100 nM) | % HSC ([1]; 100 nM) | % MLP ([1]; 100 nM) | % MPP ([1]; 100 nM) | % CD34+/CD38− ([1]; 1 μM) | % HSC ([1]; 1 μM) | % MLP ([1]; 1 μM) | % MPP ([1]; 1 μM) | % CD34+/CD38− ([1]; 10 μM) | % HSC ([1]; 10 μM) | % MLP ([1]; 10 μM) | % MPP ([1]; 10 μM) | % HSC ([1]; 100 μM) | % MLP ([1]; 100 μM) | % MPP ([1]; 100 μM) | other results
1 | C[C@]12CC[C@@H]3c4ccc(O)cc4CC[C@H]3[C@@H]1CCC2=O [E1, estrone] | more toxic | 12.32 ± 2.72% | 2.19 ± 0.65% | 3.32 ± 1.90% | 4.69 ± 0.88% | 12.91 ± 5.83% | 2.12 ± 0.29% | 4.12 ± 3.56% | 4.37 ± 1.47% | 10.11 ± 2.31% | 2.31 ± 0.45% | 1.80 ± 0.92% | 4.48 ± 1.50% | 10.54 ± 3.34% | 2.25 ± 0.41% | 2.92 ± 2.12% | 3.66 ± 0.89% | 0.67% | 4.46% | 3.86% | % CD34+/CD38− ([1]; 100 μM): 11.02%; % CD34+/CD38− ([1]; 500 μM): 14.80 ± 4.62%; % HSC ([1]; 500 μM): 1.75 ± 0.51%; % MLP ([1]; 500 μM): 4.64 ± 3.09%; % MPP ([1]; 500 μM): 5.87 ± 1.34%
2 | C[C@]12CC[C@@H]3c4ccc(O)cc4CC[C@H]3[C@@H]1C[C@@H](O)[C@@H]2O [E3, estriol] | more toxic | 14.77 ± 0.41% | 1.87 ± 0.09% | 4.94 ± 0.70% | 5.75 ± 0.21% | 18.28 ± 1.30% | 2.28 ± 0.03% | 6.46 ± 0.83% | 7.25 ± 0.46% | 14.96 ± 0.57% | 4.94 ± 2.86% | 2.72 ± 2.38% | 5.57 ± 0.12% | 15.89 ± 0.62% | 1.95 ± 0.13% | 5.24 ± 0.65% | 6.18 ± 0.47% | 4.13% | 0.15% | 6.44% | % CD34+/CD38− ([1]; 500 μM): 17.92 ± 2.56%; % HSC ([1]; 500 μM): 3.70 ± 1.51%; % MLP ([1]; 500 μM): 4.73 ± 1.60%; % MPP ([1]; 500 μM): 7.61 ± 2.91%
3 | C[C@]12CC[C@@H]3c4ccc(O)cc4CC[C@H]3[C@@H]1CC[C@@H]2O [E2, 17β-estradiol] | more toxic | 11.99 ± 0.99% | 1.52 ± 0.24% | 4.23 ± 0.82% | 4.33 ± 0.33% | 10.74 ± 0.29% | 4.25 ± 2.95% | 3.72 ± 0.31% | 3.20 ± 0.76% | 13.43 ± 0.60% | 1.59 ± 0.15% | 3.98 ± 0.14% | 5.62 ± 0.74% | 17.52 ± 2.19% | 1.86 ± 0.12% | 6.79 ± 1.96% | 4.97 ± 0.23% | 4.50 ± 1.91% | 1.76 ± 0.66% | 7.08 ± 1.80% | Percentage in the human hematopoietic population: hematopoietic stem cells ([2]; hCD34+/hCD38−): 0.52 +/− 0.07 (n = 13) %; Percentage in the human hematopoietic population: hematopoietic progenitors ([2]; hCD34+): 9.35 +/− 0.86 (n = 13) %; Percentage of human hematopoietic reconstitution ([2]; three-four months later): 46.05 +/− 5.98 (n = 13) %; Percentage in the human hematopoietic population: Lymphoid ([2]; CD19+): 82.26 +/− 2.14 (n = 9) %; Percentage in the human hematopoietic population: Myeloid ([2]; CD33+): 8.42 +/− 0.88 (n = 9) %; Normalized human CFU ([3]; 100 μM estrogen for a week, CFU after fourteen days, normalized to control, mean +/− SEM): 1.50 +/− 0.21 (n = 6); number of hematopoietic cells in LTC-IC [3, 6]: reduced; total number of primitive hematopoietic progenitors in LTC-IC [3, 6]: did not change; % CD34+/CD38− ([1]; 100 μM): 14.52 ± 2.88%; % CD34+/CD38− ([1]; 500 μM): 11.93 ± 2.95%; % HSC ([1]; 500 μM): 3.97 ± 2.39%; % MLP ([1]; 500 μM): 1.01 ± 0.24%; % MPP ([1]; 500 μM): 6.96 ± 2.54%; Percentage of hematopoietic stem cells (hCD34+/hCD38−) in the human hematopoietic population (human cord blood CD34+ [4]): 0.34 +/− 0.12 (n = 3) %; Percentage of human hematopoietic reconstitution (human cord blood CD34+ [4]): 23.90 +/− 4.65 (n = 3) %; proportion of engrafted mice (human engraftment above 0.1%) (human cord blood CD34+ [5]; 5×10^3 CB-CD34+): 70%; change of the proportion of engrafted mice versus vehicle (human cord blood CD34+ [5]; limited HPC dose, engraftment above 0.1%): almost tripled; Percentage of human hematopoietic reconstitution (human cord blood CD34+ [5]; low dose 5×103 hCD34+, mean +/− SEM): 2.12 +/− 1.05 (n = 10) %
